Results taken from patent publication US20230021562A1, “[…] D[…]-1 INHIBITORS” (priority 2019, published 2023).
“And” between values parts separate entries of the source, which are not always exact repeats. Identical values can stand only once. Like-named read-outs stand apart in the source and are kept apart here.

How the values were obtained:
[1] = biological target: Myeloid Cell Leukemia 1 (Mcl-1) (Homo sapiens, UniProt Q07820); assay: biochemical; format: binding; details: HTRF Ki (nM)
MOLP8 cell line = assay: MOLP8 CellEvent Caspase-3/7 Green live-cell IncuCyte apoptosis assay; format: cell-based, human; details: averaged values
Experimental: (§1) MCL-1 is a regulator of apoptosis and is highly over-expressed in tumor cells that escape cell death. The assay evaluates the cellular potency of small-molecule compounds targeting regulators of the apoptosis pathway, primarily MCL-1, Bfl-1, Bcl-2, and other proteins of the Bcl-2 family. Protein-protein inhibitors disrupting the interaction of anti-apoptotic regulators with BH3-domain proteins initiate apoptosis.
Activation of the apoptotic pathway was measured using the CellEvent™ Caspase-3/7 Green ReadyProbes™ Reagent (Thermo Fisher C10423, C10723). This assay produces a green fluorescent stain in cells that enter the apoptosis pathway. CellEvent® Caspase-3/7 Green reagent is a four amino acid peptide (DEVD) conjugated to a nucleic acid-binding dye that is non-fluorescent when not bound to DNA. The CellEvent® Caspase-3/7 Green reagent is intrinsically non-fluorescent, as the DEVD peptide inhibits binding of the dye to DNA. Upon activation of caspase-3/7 in apoptotic cells, the DEVD peptide is cleaved and the free dye can bind DNA, generating a bright green fluorescence. The activation of Caspase-3 and Caspase-7 is downstream of inhibition of MCL-1 or other apoptosis inhibiting proteins in cell lines that are dependent on them.
The live-cell readout on the IncuCyte permits tracking over time of the Caspase activation. […] The IncuCyte readout also allows one to normalize for cell number, as the suspension cells are hard to distribute evenly.
Signals were measured every 2 h for a duration of 22 h. The ratio of the Caspase mask to the Confluence mask, per image, as raw data, was calculated and the kinetic trace for every well was exported to Genedata Screener for analysis.
In Genedata Screener values for 6 h, 12 h, and 22 h from the kinetic traces were extracted. The values were normalized against negative controls (untreated cells). A standard dose-response analysis was performed on the normalized data.
The following data was reported at each of the following three aforementioned time points: (a) The dose-response curve, (b) The qAC50 and qAC50 Mode, and (c) Max Activity.
Cells were maintained in culture medium containing 10% Heat Inactivated (HI) FBS, 2 mM L-Glutamine and 50 μg/mL Gentamycin phenol red free RPMI-1640. Cells were split at 0.4 million/mL twice a week.
On Day 1, plates containing individual wells with test compounds at 10 mM concentration, 150 nL per well. The final concentrations range from […] compound (and no compound control) and compounds were thawed at room temperature for 1 hour. 25 μl of prewarmed medium was added into each well by multidrop (column 1, 3-22, 24), followed by addition of DMSO control (0.6% DMSO) in column 2. The plate was sealed using Breathe-Easy® sealing membrane and shaken for 30 min at room temperature to dissolve the test compound(s) in medium. The plate was then kept in the incubator for 1 hour at 37° C., 5% CO2.
MOLP8 cells in medium at […] (20000/50 μl final in assay) were prepared with CellEvent™ Caspase-3/7 Green Detection Reagent at 4 μM (2 μM final in assay). Once prepared, the cells were added to the test compound plate in an amount of 20000 and the plate was immediately placed in the IncuCyte and imaging started using following settings: 10× objective, 2 s exposure time in green channel, interval of 2 h, acquisition stopped after 22 h.
For analysis in IncuCyte, a Basic Analysis protocol was defined to calculate the “confluence” and “caspase” areas from the “Phase” and “green” images, respectively, as follows: (a) Confluence: Segmentation Adjustment 1, Hole Fill 0, Adjust Size −2, No filters (b) Caspase: Top-Hat segmentation, Radius 10, Threshold 0.3 GCU, Edge Split On with sensitivity 0, Hole Fill 0, Adjust Size 1, and filter on a minimum Area of 20 μm^2. The analyzer is trained on a sufficient number of positive and negative control wells, as well as compound treated wells, verifying that the “confluence” layer detects both live and dead (condensed) cells. […]

[2] = system: MOLP-8 human multiple myeloma cell line; assay: MOLP8 Caspase-Glo 3/7 luminescent assay; format: cell-based; details: averaged over all runs on all batches
From the text: as §1
The Caspase-Glo® 3/7 Assay is a luminescent assay that measures caspase-3 and -7 activities in purified enzyme preparations or cultures of adherent or suspension cells. The assay provides a proluminescent caspase-3/7 substrate, which contains the tetrapeptide sequence DEVD. This substrate is cleaved to release aminoluciferin, a substrate of luciferase used in the production of light. Addition of the single Caspase-Glo® 3/7 Reagent in an “add-mix-measure” format results in cell lysis, followed by caspase cleavage of the substrate and generation of a “glow-type” luminescent signal.
This assay uses the MOLP-8 human multiple myeloma cell line, which is sensitive to MCL-1 inhibition.
Cell cultures were maintained between 0.2 and 2.0×10^6 cells/mL. The cells were harvested by collection in 50 mL conical tubes. The cells were then pelleted at 500 g for 5 mins before removing supernatant and resuspension in fresh pre-warmed culture medium. The cells were counted and diluted as needed.
The assay reagent was prepared by transferring the buffer solution to the substrate vial and mixing. The solution may be stored for up to 1 week at 4° C. with negligible loss of signal.
Compounds were delivered in assay-ready plates (Proxiplate) and stored at −20° C.
Assays always include 1 reference compound plate containing reference compounds. The plates were spotted with 40 nL of compounds (0.5% DMSO final in cells; serial dilution; 30 μM highest conc. 1/3 dilution, 10 doses, duplicates). The compounds were used at room temperature and 4 μL of pre-warmed media was added to all wells except column 2 and 23. The negative control was prepared by adding 1% DMSO in media. The positive control was prepared by adding the appropriate positive control compound in final concentration of 60 μM in media. The plate was prepared by adding 4 μL negative control to column 23, 4 μL positive control to column 2 and 4 μL cell suspension to all wells in the plate. The plate with cells was then incubated at 37° C. for 2 hours. The assay signal reagent is the Caspase-Glo solution described above, and 8 μL was added to all wells. The plates were then sealed and measured after 30 minutes.
The activity of a test compound was calculated as percent change in apoptosis induction as follows: […]

[3] = read-out: MOLP8 Caspase 3/7 AC50 at 6 h, MOLP8 cells, 6 h
[4] = read-out: MOLP8 Caspase 3/7 AC50 at 12 h, MOLP8 cells, 12 h
[5] = read-out: MOLP8 Caspase 3/7 AC50 at 22 h, MOLP8 cells, 22 h
[6] = Homo sapiens, MOLP-8, 2 h, read-out: MOLP8 Caspase-Glo AC50 (nM), MOLP8 cells, 2 hours incubation
[7] = MOLP8 cells, 2 hours incubation, read-out: MOLP8 Caspase-Glo AC50

Myeloid Cell Leukemia 1 (Mcl-1), sequence (Q07820 whole entry): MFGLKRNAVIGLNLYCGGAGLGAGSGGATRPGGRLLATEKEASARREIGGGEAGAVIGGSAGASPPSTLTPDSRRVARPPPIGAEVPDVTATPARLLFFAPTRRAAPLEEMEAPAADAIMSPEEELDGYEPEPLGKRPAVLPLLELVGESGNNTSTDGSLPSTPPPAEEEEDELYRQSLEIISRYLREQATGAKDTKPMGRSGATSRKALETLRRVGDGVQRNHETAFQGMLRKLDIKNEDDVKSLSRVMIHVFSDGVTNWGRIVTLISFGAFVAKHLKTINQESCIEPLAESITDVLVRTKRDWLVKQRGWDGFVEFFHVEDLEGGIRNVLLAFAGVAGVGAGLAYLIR

| SMILES | Ki [1] | AC50 (MOLP8 cell line; [3]) | AC50 (MOLP8 cell line; [4]) | AC50 (MOLP8 cell line; [5]) | AC50 [2, 6] | AC50 [2, 7] | AC50 (MOLP8 cell line; Homo sapiens, MOLP-8, 6 h, read-out: MOLP8 Caspase 3/7 AC50 at 6 h (μM), MOLP8 cells, 6 h) | AC50 (MOLP8 cell line; Homo sapiens, MOLP-8, 12 h, read-out: MOLP8 Caspase 3/7 AC50 at 12 h (μM), MOLP8 cells, 12 h) | AC50 (MOLP8 cell line; Homo sapiens, MOLP-8, 22 h, read-out: MOLP8 Caspase 3/7 AC50 at 22 h (μM), MOLP8 cells, 22 h) | AC50 ([2]; read-out: MOLP8 Caspase-Glo AC50, MOLP8 cells, 2 hours incubation) |
| --- | --- | --- | --- | --- | --- | --- | --- | --- | --- | --- |
| Cc1c2c(nn1CCO)CN(C)Cc1cc(n(C)n1)CSc1cc(c3ccccc3c1)OCCCc1c(C(=O)O)n(C)c3c-2c(Cl)ccc13 (single isomer, unassigned) [Compound 38] | 0.7 nM and 0.48 nM | 5.49 µM | 5.39 µM | 5.16 µM | 3050 nM |  |  |  |  |  |
| COCCOCCn1nc2c(c1C)-c1c(Cl)ccc3c(c(C(=O)O)n(C)c13)CCCOc1cc(cc3ccccc13)SCc1cc(nn1C)CN(C)C2 (single isomer, unassigned) [Compound 31] | 0.04 nM and 0.03 nM | 0.16 µM | 0.16 µM | 0.16 µM |  | 39 nM |  |  |  |  |
| Cc1nn(CCN2CCOCC2)c2c1-c1c(Cl)ccc3c(c(C(=O)O)n(C)c13)CCCOc1cc(cc3ccccc13)SCc1cc(nn1C)CN(C)C2 (single isomer, unassigned) [Compound 42] | 0.79 nM | 2.96 µM | 3.18 µM | 2.98 µM |  | 1260 nM |  |  |  |  |
| Cc1c2c(nn1CCN(C)C)CN(C)Cc1cc(n(C)n1)CSc1cc(c3ccccc3c1)OCCCc1c(C(=O)O)n(C)c3c-2c(Cl)ccc13 (single isomer, unassigned) [Compound 21] | 0.49 nM and 0.31 nM | 3.16 µM | 2.96 µM | 3.09 µM |  | 1600 nM |  |  |  |  |
| COCCOCCn1nc2c(c1C)-c1c(Cl)ccc3c(c(C(=O)O)n(C)c13)CCCOc1cc(cc3ccccc13)SCc1cc(nn1C)CN(C)C2 (single isomer, unassigned) [Compound 32] | 7.44 nM and 8.51 nM | ~27.5 µM | ~21.5 µM | ~20 µM |  | 12100 nM |  |  |  |  |
| Cc1c2c(nn1C)CSCc1cc(nn1CCO)CSc1cc(c3ccccc3c1)OCCCc1c(C(=O)O)n(C)c3c-2c(Cl)ccc13 [Compound 6] | 0.16 nM |  |  |  | 414 nM |  | 0.71 µM | 0.63 µM | 0.48 µM |  |
| Cc1nn(CCN(C)C)c2c1-c1c(Cl)ccc3c(c(C(=O)O)n(C)c13)CCCOc1cc(cc3ccccc13)SCc1cc(nn1C)CN(C)C2 (single isomer, unassigned) [Compound 22] | 3.73 nM and 3.07 nM | ~17.4 µM | ~17 µM | ~17 µM |  | 14500 nM |  |  |  |  |
| COCCn1nc2c(c1C)-c1c(Cl)ccc3c(c(C(=O)O)n(C)c13)CCCOc1cc(cc3ccccc13)SCc1cc(nn1C)CN(C)C2 (single isomer, unassigned) [Compound 28] | 9.8 nM and 9.39 nM | ~20.7 µM | 13.4 µM | 11.3 µM |  |  |  |  |  | 5400 nM |
